Results as given in US10287585B2, “Therapy” (priority 2015, dated 2019).
Entries after “also recorded” stand apart in the source; their conditions may differ.

Assays:
Format in all cases: in vivo
E. coli CFT073 [1] = test: Treatment of Irf3−/− mice after intravesical E. coli CFT073 infection: Irf7 siRNA compared with antibiotic therapy (Example 5); conditions: for number (frequency) of abscesses: siRNA intravenously and intravesically 24 hours and 4 days after infection, vs untreated
Method: Irf7 siRNA treatment was compared with antibiotic therapy. Groups of 6 Irf3^−/− mice were treated intravenously and intravesically with siRNA as described in Example 3, 24 hours and 4 days after intravesical infection with E. coli CFT073. The 24 hour time point corresponds to the time of acute symptoms, when patients are first diagnosed with febrile urinary tract infection (UTI) and treatment is initiated.
Also at that time, and following infection with E. coli CFT073, Irf3 mice were treated with the third-generation cephalosporin broad-spectrum antibiotic, Cefotaxime (STRAGEN Nordic A/S) at a dose of 100 or 400 mg/kg body weight. Cefotaxime was given by intraperitoneal injection twice a day for 6 days starting 24 hours after infection.
After 7 days, the mice were sacrificed, and kidney pathology and inflammation as quantified by neutrophil numbers in urine was assessed. Bacterial clearance was also assessed in SiRNA treated mice by measuring bacterial counts in urine. The results are shown in FIGS. 9A-E and 10A-D respectively.

[2] = system: pro-inflammatory genes and pathology network genes; test: Whole genome transcriptomic analysis of kidneys from Irf7 siRNA treated mice
From the text: (§1) Ambion In Vivo Negative Control siRNA was given as a control (Life Technologies, 4457287). For transcriptomic analysis, total RNA was isolated from the kidney of Irf3^−/− mice using mirVana miRNA Isolation Kit (Ambion by Life Technologies) followed by organic extraction using Acid-Phenol:Chloroform. The analysis was done in-house using Mouse Genome 430 PM array strips and GeneAtlas system (Affymetrix).

STAT3 = test: Immunohistochemistry of submucosal STAT3 in kidneys of siRNA treated mice; conditions: Irf3−/− mice, 7 days after infection
IRF-7 = test: Immunohistochemistry of IRF-7 in renal pelvic mucosa of siRNA treated mice; conditions: Irf3−/− mice, 7 days after infection
E. coli CFT073 [3] = test: Irf7 siRNA therapy given before intravesical E. coli CFT073 infection of susceptible Irf3−/− mice (Example 3)
Method: Anesthetized mice (Isofluoran) were infected by intravesical inoculation with E. coli CFT073 (10^8 CFU in 0.1 mL) as described (Hagberg et al., Infection and immunity (1983) 40, 273-283). Overnight static cultures of E. coli CFT073 in Luria broth were used for animal inoculations.
Animals were sacrificed after 7 days under anesthesia, kidneys were aseptically removed and macroscopic pathology was documented by photography. Tissues were divided for RNA extraction (on dry ice), histology and immunostaining (in O.C.T. compound, VWR) and frozen in separate vials at −80° C. Infection was assessed by viable counts of homogenized whole kidney (in 5 mL PBS). Urine samples were collected prior to and at regular times after infection and quantitatively cultured. Neutrophil numbers were quantified in uncentrifuged urine by use of a hemocytometer.
siRNA therapy was used to confirm the role of Irf7 in pathology. Irf3^−/− mice were subjected to siRNA treatment at a dose of 5 mg/kg. A dose (300 μL) of Silencer Select Pre-designed Irf7 siRNA (Life Technologies, 4404010 #s79411) was injected into the tail vein (200 μL) and intravesically (100 μL), three days prior to and on the day of infection with Invivofectamine reagent (Life Technologies, 1377501) (FIG. 5A). The siRNA used was as follows:
as §1
After 7 days following infection, mice were sacrificed. The disease phenotype was defined by macroscopic kidney pathology, number of abscesses, bacterial counts in urine and kidneys, urine neutrophil numbers and tissue imaging (FIGS. 5B and 5D). Irf7 siRNA-treated mice were compared to infected controls receiving irrelevant siRNA with Invivofectamine® or no treatment.

[4] = Cefotaxime 100 or 400 mg/kg intraperitoneal twice a day for 6 days starting 24 hours after infection, 7 days
[5] = kidneys of Irf7 siRNA treated Irf3−/− mice infected with CFT073 vs untreated controls
[6] = abscesses, 7 days after infection
[7] = siRNA 24 hours and 4 days after infection, 7 days
[8] = Irf3−/− mice, siRNA 5 mg/kg three days prior to and on the day of infection, 7 days after infection
[9] = immunohistochemistry 7 days after infection, vs negative control siRNA treated or untreated Irf3−/− mice

CO/N=C(\C(=O)N[C@@H]1C(=O)N2C(C(=O)O)=C(COC(C)=O)CS[C@H]12)c1csc(N)n1 [Cefotaxime, reference compound]
frequency of abscesses (E. coli CFT073 [1]; [4]): reduced | neutrophil numbers in urine (inflammation) (E. coli CFT073 [1]; [4]): reduced

Irf7 siRNA: Silencer Select Pre-designed Irf7 siRNA (Life Technologies, 4404010 #s79411); sense GUGUUUACGAGGAACCCUAtt, antisense UAGGGUUCCUCGUAAACACgg; delivered with Invivofectamine (sense GUGUUUACGAGGAACCCUATT; antisense UAGGGUUCCUCGUAAACACGG; chemistry not given here)
pathology-associated gene expression ([2]; Irf7 siRNA treated mice, as stated in Example 5): absence | Tlr4 expression [2, 5]: activated | expression of pro-inflammatory genes and transcriptional regulators (chemokines, Irf7, Stat3, Jun) [2, 5]: suppressed | transcript levels overall and of pathology-associated genes (Stat3, S100a8, Cxcl2, Junb) ([2]; kidneys of siRNA treated Irf3−/− mice): suppressed | effect compared with 100 mg/kg of Cefotaxime (E. coli CFT073 [1]; [6]): similar | effect compared with 400 mg/kg of Cefotaxime (E. coli CFT073 [1]; [6]): lower | bacterial counts in urine (bacterial clearance) (E. coli CFT073 [1]; [7]): lower | neutrophil numbers in urine (magnitude of the neutrophil infiltrate) (E. coli CFT073 [1]; [7]): reduced | neutrophil numbers in urine (magnitude of the neutrophil infiltrate) (E. coli CFT073 [1]; siRNA 24 hours and 4 days after infection, 7 days, listed as SiRNA): significantly reduced | number (frequency) of abscesses (E. coli CFT073 [1]; 7 days after infection): reduced | number (frequency) of abscesses (E. coli CFT073 [1]; 7 days after infection, listed as SiRNA): significantly reduced | submucosal STAT3 staining (STAT3): reduced; also recorded: inhibited | mucosal IRF-7 expression (staining) in renal pelvic mucosa (IRF-7): Suppression; also recorded: Inhibition | mucosal IRF-7 expression (staining) in renal pelvic mucosa (IRF-7; listed as siRNA): Reduced | macroscopic kidney pathology and tissue damage (E. coli CFT073 [3]; Irf3−/− mice, siRNA 5 mg/kg tail vein + intravesically, three days prior to and on the day of infection, 7 days after infection, vs irrelevant siRNA or untreated): Reduction | bacterial counts in urine and renal tissue (E. coli CFT073 [3]; [8]): reduction; also recorded: lower | neutrophil recruitment (neutrophil numbers in urine) (E. coli CFT073 [3]; [8]): reduction; also recorded: reduced | frequency of abscesses (E. coli CFT073 [3]; Irf3−/− mice, siRNA three days prior to and on the day of infection, 7 days after infection, n=3-8): reduced | bacterial staining, frozen kidney tissue sections (E. coli CFT073 [3]; [9]): markedly reduced | neutrophil staining, frozen kidney tissue sections (E. coli CFT073 [3]; [9]): markedly reduced
